From patent publication US6737383B1, “Herbicidal oxadiazolidines” (priority 1999, dated 2004)

Key:
blackgrass = assay: Test B pre/postemergence blackgrass; type: in vivo, Alopecurus myosuroides
How it was run: (§1)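 Test chemicals in a non-phytotoxic solvent mixture with surfactant were sprayed preemergence onto planted seeds and postemergence onto plants 2 to 18 cm tall (1- to 4-leaf stage). After twelve to sixteen days in a greenhouse, injury was visually rated against untreated controls from 0 (no effect) to 10 (complete control).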

sugar beet = assay: Test B pre/postemergence sugar beet; type: in vivo, Beta vulgaris; details: for Plant response rating, Sugarbeets: scale of 0 to 10 where 0 is no effect and 10 is complete control
How it was run: as §1

morningglory = assay: Test B pre/postemergence morningglory; type: in vivo, Ipomoea hederacea; details: for Plant response rating, Morningglory: scale of 0 to 10 where 0 is no effect and 10 is complete control
How it was run: as §1

purple nutsedge = assay: Test B pre/postemergence purple nutsedge; type: in vivo, Cyperus rotundus; details: for Plant response rating, Nutsedge: scale of 0 to 10 where 0 is no effect and 10 is complete control
How it was run: as §1

smallflower flatsedge = assay: Test B flood test smallflower flatsedge; type: in vivo, Cyperus difformis
How it was run: (§2)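 Plants were grown to the 2-leaf stage before treatment with test chemical, then held in a greenhouse for twelve to sixteen days. Injury was visually rated against untreated controls on a 0–10 scale, where 0 is no effect and 10 is complete control.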

wild oat = assay: Test B pre/postemergence wild oat; type: in vivo, Avena fatua; details: for Plant response rating, Wild oats: scale of 0 to 10 where 0 is no effect and 10 is complete control
How it was run: as §1

cocklebur = assay: Test B pre/postemergence cocklebur; type: in vivo, Xanthium strumarium
How it was run: as §1

soybean = assay: Test B pre/postemergence soybean; type: in vivo, Glycine max; details: for Plant response rating, Soybean: scale of 0 to 10 where 0 is no effect and 10 is complete control
How it was run: as §1

surinam grass = assay: Test B pre/postemergence surinam grass; type: in vivo, Brachiaria decumbens
How it was run: as §1

corn = assay: Test B pre/postemergence corn; type: in vivo, Zea mays
How it was run: as §1

duck salad = assay: Test B flood test duck salad; type: in vivo, Heteranthera limosa
How it was run: as §2

wheat = assay: Test B pre/postemergence wheat; type: in vivo, Triticum aestivum; details: for Plant response rating, Wheat: scale of 0 to 10 where 0 is no effect and 10 is complete control
How it was run: as §1

rice = assay: Test B flood test rice; type: in vivo, Oryza sativa
How it was run: as §2

bamyardgrass = assay: Test B flood test barnyardgrass; type: in vivo, Echinochloa crus-galli
How it was run: as §2

pigweed = assay: Test B pre/postemergence pigweed; type: in vivo, Amaranthus retroflexus; details: for Plant response rating, Redroot pigweed: scale of 0 to 10 where 0 is no effect and 10 is complete control
How it was run: as §1

crabgrass = assay: Test B pre/postemergence crabgrass; type: in vivo, Digitaria sanguinalis
How it was run: as §1

giant foxtail = assay: Test B pre/postemergence giant foxtail; type: in vivo, Setaria faberii
How it was run: as §1

velvetleaf = assay: Test B pre/postemergence velvetleaf; type: in vivo, Abutilon theophrasti; details: for Plant response rating, Velvetleaf: scale of 0 to 10 where 0 is no effect and 10 is complete control
How it was run: as §1

rape = assay: Test B pre/postemergence rape; type: in vivo, Brassica napus; details: for Plant response rating, Rape: scale of 0 to 10 where 0 is no effect and 10 is complete control
How it was run: as §1

[1] = Postemergence, Rate 250 g/ha, scale 0 to 10
[2] = Postemergence, Rate 500 g/ha, scale of 0 to 10 where 0 is no effect and 10 is complete control
[3] = Preemergence, Rate 62 g/ha, scale of 0 to 10 where 0 is no effect and 10 is complete control
[4] = Preemergence, Rate 125 g/ha, scale of 0 to 10 where 0 is no effect and 10 is complete control
[5] = Preemergence, Rate 250 g/ha, scale 0 to 10, 0 is no effect, 10 is complete control
[6] = Preemergence, Rate 500 g/ha, scale 0 to 10, 0 is no effect, 10 is complete control
[7] = Rate 62 g/ha, Postemergence, scale 0 to 10 (0 no effect, 10 complete control)
[8] = Rate 125 g/ha, Postemergence, scale 0 to 10, 0 is no effect, 10 is complete control
[9] = Rate 62 g/ha, flood test species, Pre-emergence, visual evaluation after twelve to sixteen days
[10] = Rate 125 g/ha, under heading Pre-emergence, flood test species, visual evaluation after twelve to sixteen days
[11] = Rate 250 g/ha, Pre-emergence (flood test species), scale 0 to 10, 0 is no effect, 10 is complete control
[12] = Rate 500 g/ha, Pre-emergence, flood test species, scale 0 to 10 (0 no effect, 10 complete control)

## COC(OC)C(C)n1c(=O)on(C(=O)N(c2ccc(F)cc2F)C(C)C)c1=O (stereo not shown) [Compound 472]
blackgrass; [1]
  Blackgrass plant response rating: 2
blackgrass; [2]
  Blackgrass plant response rating: 8
blackgrass; [3]
  Plant response rating, Blackgrass: 9
blackgrass; [4]
  Plant response rating, Blackgrass: 9
blackgrass; [5]
  Blackgrass plant response rating: 10
blackgrass; [6]
  Blackgrass plant response rating: 10
blackgrass; [7]
  Blackgrass plant response rating: 0
blackgrass; [8]
  Blackgrass plant response rating: 0
Sugar beet; [1]
  Sugarbeets plant response rating: 0
Sugar beet; Preemergence, Rate 62 g/ha
  Plant response rating, Sugarbeets: 1
Sugar beet; Preemergence, Rate 125 g/ha
  Plant response rating, Sugarbeets: 2
Sugar beet; [5]
  Sugarbeets plant response rating: 3
Sugar beet; [6]
  Sugarbeets plant response rating: 6
Sugar beet; [7]
  Sugarbeets plant response rating: 0
Sugar beet; [8]
  Sugarbeets plant response rating: 0
morningglory; [1]
  Morningglory plant response rating: 4
morningglory; Preemergence, Rate 62 g/ha
  Plant response rating, Morningglory: 0
morningglory; Preemergence, Rate 125 g/ha
  Plant response rating, Morningglory: 0
morningglory; [5]
  Morningglory plant response rating: 0
morningglory; [6]
  Morningglory plant response rating: 5
morningglory; [7]
  Morningglory plant response rating: 3
morningglory; [8]
  Morningglory plant response rating: 3
Purple nutsedge; [1]
  Nutsedge plant response rating: 0
Purple nutsedge; Preemergence, Rate 62 g/ha
  Plant response rating, Nutsedge: 0
Purple nutsedge; Preemergence, Rate 125 g/ha
  Plant response rating, Nutsedge: 0
Purple nutsedge; [5]
  Nutsedge plant response rating: 0
Purple nutsedge; [6]
  Nutsedge plant response rating: 10
Purple nutsedge; [7]
  Nutsedge plant response rating: 0
Purple nutsedge; [8]
  Nutsedge plant response rating: 0
Smallflower flatsedge; [9]
  Plant response rating, S. Flatsedge (0 to 10 scale, 0 is no effect, 10 is complete control): 0
Smallflower flatsedge; [10]
  S. Flatsedge plant response rating (0 to 10 scale, 0 is no effect, 10 is complete control): 0
Smallflower flatsedge; [11]
  S. Flatsedge plant response rating: 0
Smallflower flatsedge; [12]
  S. Flatsedge plant response rating: 0
Wild oat; [1]
  Wild oats plant response rating: 0
Wild oat; Preemergence, Rate 62 g/ha
  Plant response rating, Wild oats: 2
Wild oat; Preemergence, Rate 125 g/ha
  Plant response rating, Wild oats: 5
Wild oat; [5]
  Wild oats plant response rating: 8
Wild oat; [6]
  Wild oats plant response rating: 10
Wild oat; [7]
  Wild oats plant response rating: 0
Wild oat; [8]
  Wild oats plant response rating: 0
cocklebur; [1]
  Cocklebur plant response rating: 0
cocklebur; [2]
  Cocklebur plant response rating: 1
cocklebur; [3]
  Plant response rating, Cocklebur: 0
cocklebur; [4]
  Plant response rating, Cocklebur: 0
cocklebur; [5]
  Cocklebur plant response rating: 0
cocklebur; [6]
  Cocklebur plant response rating: 2
cocklebur; [7]
  Cocklebur plant response rating: 0
cocklebur; [8]
  Cocklebur plant response rating: 0
soybean; [1]
  Soybean plant response rating: 2
soybean; Preemergence, Rate 62 g/ha
  Plant response rating, Soybean: 0
soybean; Preemergence, Rate 125 g/ha
  Plant response rating, Soybean: 0
soybean; [5]
  Soybean plant response rating: 0
soybean; [6]
  Soybean plant response rating: 3
soybean; [7]
  Soybean plant response rating: 2
soybean; [8]
  Soybean plant response rating: 2
Surinam grass; Postemergence, Rate 250 g/ha, scale 0 to 10, 0 no effect, 10 complete control
  B. signalgrass plant response rating: 2
Surinam grass; [2]
  B. signalgrass plant response rating: 5
Surinam grass; [3]
  Plant response rating, B. signalgrass: 3
Surinam grass; [4]
  Plant response rating, B. signalgrass: 9
Surinam grass; [5]
  B. signalgrass plant response rating: 9
Surinam grass; [6]
  B. signalgrass plant response rating: 10
Surinam grass; [7]
  B. signalgrass plant response rating: 0
Surinam grass; [8]
  B. signalgrass plant response rating: 0
corn; [1]
  Corn plant response rating: 0
corn; [2]
  Corn plant response rating: 3
corn; [3]
  Plant response rating, Corn: 0
corn; [4]
  Plant response rating, Corn: 0
corn; [5]
  Corn plant response rating: 2
corn; [6]
  Corn plant response rating: 7
corn; [7]
  Corn plant response rating: 0
corn; [8]
  Corn plant response rating: 0
Duck salad; [9]
  Plant response rating, Ducksalad (0 to 10 scale, 0 is no effect, 10 is complete control): 0
Duck salad; [10]
  Ducksalad plant response rating (0 to 10 scale, 0 is no effect, 10 is complete control): 0
Duck salad; [11]
  Ducksalad plant response rating: 0
Duck salad; [12]
  Ducksalad plant response rating: 0
wheat; [1]
  Wheat plant response rating: 0
wheat; Preemergence, Rate 62 g/ha
  Plant response rating, Wheat: 0
wheat; Preemergence, Rate 125 g/ha
  Plant response rating, Wheat: 0
wheat; [5]
  Wheat plant response rating: 0
wheat; [6]
  Wheat plant response rating: 0
wheat; [7]
  Wheat plant response rating: 0
wheat; [8]
  Wheat plant response rating: 0
rice; [9]
  Plant response rating, Rice (0 to 10 scale, 0 is no effect, 10 is complete control): 0
rice; [10]
  Rice plant response rating (0 to 10 scale, 0 is no effect, 10 is complete control): 0
rice; [11]
  Rice plant response rating: 0
rice; [12]
  Rice plant response rating: 0
bamyardgrass; [9]
  Plant response rating, Barnyardgrass (0 to 10 scale, 0 is no effect, 10 is complete control): 0
bamyardgrass; [10]
  Barnyardgrass plant response rating (0 to 10 scale, 0 is no effect, 10 is complete control): 0
bamyardgrass; [11]
  Barnyardgrass plant response rating: 0
bamyardgrass; [12]
  Barnyardgrass plant response rating: 0
pigweed; [1]
  Redroot pigweed plant response rating: 3
pigweed; Preemergence, Rate 62 g/ha
  Plant response rating, Redroot pigweed: 10
pigweed; Preemergence, Rate 125 g/ha
  Plant response rating, Redroot pigweed: 10
pigweed; [5]
  Redroot pigweed plant response rating: 10
pigweed; [6]
  Redroot pigweed plant response rating: 10
pigweed; [7]
  Redroot pigweed plant response rating: 0
pigweed; [8]
  Redroot pigweed plant response rating: 2
crabgrass; [1]
  Crabgrass plant response rating: 8
crabgrass; [2]
  Crabgrass plant response rating: 8
crabgrass; [3]
  Plant response rating, Crabgrass: 9
crabgrass; [4]
  Plant response rating, Crabgrass: 9
crabgrass; [5]
  Crabgrass plant response rating: 10
crabgrass; [6]
  Crabgrass plant response rating: 10
crabgrass; [7]
  Crabgrass plant response rating: 7
crabgrass; [8]
  Crabgrass plant response rating: 7
Giant foxtail; [1]
  Giant foxtail plant response rating: 8
Giant foxtail; [2]
  Giant foxtail plant response rating: 8
Giant foxtail; [3]
  Plant response rating, Giant foxtail: 10
Giant foxtail; [4]
  Plant response rating, Giant foxtail: 10
Giant foxtail; [5]
  Giant foxtail plant response rating: 10
Giant foxtail; [6]
  Giant foxtail plant response rating: 10
Giant foxtail; [7]
  Giant foxtail plant response rating: 7
Giant foxtail; [8]
  Giant foxtail plant response rating: 7
velvetleaf; [1]
  Velvetleaf plant response rating: 2
velvetleaf; Preemergence, Rate 62 g/ha
  Plant response rating, Velvetleaf: 1
velvetleaf; Preemergence, Rate 125 g/ha
  Plant response rating, Velvetleaf: 3
velvetleaf; [5]
  Velvetleaf plant response rating: 3
velvetleaf; [6]
  Velvetleaf plant response rating: 7
velvetleaf; [7]
  Velvetleaf plant response rating: 0
velvetleaf; [8]
  Velvetleaf plant response rating: 0
rape; [1]
  Rape plant response rating: 0
rape; Preemergence, Rate 62 g/ha
  Plant response rating, Rape: 0
rape; Preemergence, Rate 125 g/ha
  Plant response rating, Rape: 0
rape; [5]
  Rape plant response rating: 0
rape; [6]
  Rape plant response rating: 4
rape; [7]
  Rape plant response rating: 0
rape; [8]
  Rape plant response rating: 0
